Measured values as given in article PMC2570486, “The Recently Identified P2Y-Like Receptor GPR17 Is a Sensor of Brain Damage and a New Target for Brain Repair” (PLoS ONE, 2008).
Blank lines part the entries; values can stand above or below the compound they belong to.

Legend:
mGPR17 = target: T1, mGPR17 (Mus musculus, UniProt Q6NS65); experiment: [35S]GTPγS binding in membranes of 1321N1 cells transfected with pcDNA3.1-Gpr17m; type: biochemical; settings: for EC50: membranes of 1321N1 cells expressing mouse GPR17, mean±SEM of three experiments, read-out: EC50, stimulation of [35S]GTPγS binding
T1 construct: contains a 1020 base pairs open reading frame (ORF) that encodes for a putative 339 amino acid protein; expressed in transfected cells; host or cells: 1321N1 human astrocytoma cells (transient, calcium phosphate); membranes
T1 sequence (Q6NS65 whole entry): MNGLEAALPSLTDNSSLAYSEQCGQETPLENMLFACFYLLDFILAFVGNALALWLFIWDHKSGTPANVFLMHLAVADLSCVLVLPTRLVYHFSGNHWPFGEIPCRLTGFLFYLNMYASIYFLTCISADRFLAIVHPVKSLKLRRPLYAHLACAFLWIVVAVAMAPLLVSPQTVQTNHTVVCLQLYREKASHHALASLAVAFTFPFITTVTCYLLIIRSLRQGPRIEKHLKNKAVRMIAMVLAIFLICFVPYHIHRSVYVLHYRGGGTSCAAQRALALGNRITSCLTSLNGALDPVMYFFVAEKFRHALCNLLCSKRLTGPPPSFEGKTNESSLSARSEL
Experimental: The pharmacological profile of mGPR17 was then assessed. Since stimulation of GPCRs results in increased binding of GTP to G proteins (which can, in turn, be quantified by measuring [^35S]GTPγS binding to purified membranes; see [13]), GPR17 activation in the heterologous system was determined by testing the increase of [^35S]GTPγS binding by exogenously-added agonists in membranes from transfected cells, [14], [15]. […] The ability of some known purinergic and cysLT antagonists to counteract agonist-induced GTPγS binding stimulation in cells expressing mGPR17 was also assessed.
Figure 1 Effect of purinergic and leukotriene ligands on mGPR17 with [^35S]GTPγS binding. Membrane aliquots (10 µg), obtained from 1321N1 cells transfected with pcDNA3.1-Gpr17m (A,B), were incubated with the indicated concentrations of purinergic (A) or leukotriene (B) agonists. […] (D) Effect of P2Y or CysLT receptor antagonist on agonist-stimulated [^35S]GTPγS binding. […] All data are expressed as percentage of basal [^35S]GTPγS binding (set to 100%) and represent the mean±SEM of three different experiments each performed in duplicate.
Human astrocytoma cells 1321N1 cells were cultured as described. For [^35S]GTPγS, 10^6 1321N1 cells were seeded on 75 cm^2 flasks and transfected by the calcium phosphate precipitation method.
Control and transfected 1321N1 cells were homogenized in 5 mM TRIS-HCl, 2 mM EDTA, pH 7.4 and centrifuged at 48000 g for 15 min at 4°C. The resulting plasma membranes were suspended in binding buffer and used in [^35S]GTPγS binding assay as previously described.
For [^35S]GTPγS binding data analysis and graphic presentation, a non-linear multipurpose curve-fitting program Graph-Pad Prism was used and the EC50 values were derived. Data are reported as mean±SEM of three different experiments (performed in duplicate).

[1] = system: GPR17+ oligodendrocyte precursors in primary cortical cultures; experiment: Oligodendrocyte precursor maturation in primary mixed neuronal/glial cortical cultures (immunostaining, cell counts); type: cell-based, rat; settings: 72 h
Excerpt: Figure 4 Presence and activation of GPR17 in oligodendrocyte precursor cells of primary cortical cultures maintained in vitro. […] Micrographs (A–H) show their phenotype characterization. […] Colocalization of GPR17 with these markers is shown in yellow-orange cells. […] In blue, Hoechst 33258 stained nuclei. Single cell RT-PCR was used to confirm expression of GPR17 in oligodendroglial-like cells (I). For this analysis, cells were picked up from living cultures using cell morphology as a guide at the light microscope. Left micrograph: an example of a brightfield showing cells (arrows) with oligodendrocyte morphology. These cells can be distinguished from neurons based on their size (approximately 1/3 the size of neurons), phase-dark cell bodies and presence of fine ramifications. The oligodendrocyte nature of cells with this morphology was confirmed by co-immunostaining for O4 and GPR17 at a subsequent time after culture fixing (arrows in right micrograph). By following this method, one living cell or a small number of cells (up to 10) were sucked from living cultures (see MATERIALS AND METHODS) and processed for RT-PCR analysis. […] Rat cortex was utilized as a positive control (see last lane). Scale bars: 15 µm. […] (K) Quantification of the percentage of GPR17^+ cells that also co-express the indicated oligodendrocyte markers. Total number (n) of GPR17^+ cells counted from two different coverslips for each preparation: for NG2, n = 3502; for O4, n = 2685; for CNPase, n = 1738; for MBP, n = 3615. Data were obtained from five different primary culture preparations.
Primary mixed neuronal/glial cultures from cerebral cortex were obtained from E18 Sprague-Dawley rats according to standard procedures [34]. Pregnant animals were euthanized by cervical dislocation under CO2 anesthesia, and the fetuses removed and put into ice-cold Hanks balanced salt solution. […]

GPR17 = target: T2, GPR17 (Mus musculus, UniProt Q6NS65); experiment: Permanent MCAo focal cerebral ischemia, brain infarct size by MRI; type: in vivo
T2 construct: from tissue; host or cells: brain of living male CD1 mice after permanent MCAo
T2 sequence (Q6NS65 whole entry): as above
Experimental: To address this issue, 6 mice received an anti-sense oligonucleotide (616) specifically designed to knock down this receptor in vivo. Animals were injected intracerebroventricularly 20 min and 24 h after MCAo. […] Another group of 6 animals received in parallel a “scrambled” oligonucleotide randomly generated on the basis of the nucleotide sequence of 616. This group of animals was utilized as a control group in this set of experiments. […] The evolution of ischemic damage was followed longitudinally in living animals by Magnetic Resonance Imaging (MRI) at 2, 24 and 48 h after MCAo.
Images were taken from the same animals at 2, 24 and 48 h after MCAo. […] (B) Quantitative analysis of infarct size volume at 24 and 48 hours after MCAo in mice receiving Scr, 616 or Can (mean of 6 animals/group). Data are expressed as percentage variation of infarct volume at 24 and 48 h after MCAo compared to 2 h considered as 100% (see also MATERIALS AND METHODS).
Male CD1 mice (Charles River, Calco, Italy) weighing 20–25 g, after intraperitoneally anesthetized with ketamine (0.1 mg/kg) and xylazine (0.02 mg/kg), underwent permanent MCAo, as previously described [35]. […]

[2] = UDP-glucose 100 µM, LTD4 100 nM

EC50 (mGPR17): 0.63 ± 0.1 nM
SMILES: CCCCC/C=C\C\C=C/C=C/C=C/[C@@H](SC[C@H](N)C(=O)NCC(=O)O)[C@@H](O)CCCC(=O)O [LTD4]
number of GPR17+ precursor cells [1, 2]: significantly increased
number of mature MBP+ oligodendroglial cells [1, 2]: significantly increased

EC50 (mGPR17): 0.31 ± 0.09 nM
SMILES: CCCCC/C=C\C\C=C/C=C/C=C/[C@@H](SC[C@H](N)C(=O)O)[C@@H](O)CCCC(=O)O [LTE4]

IC50 (mGPR17; membranes of 1321N1 cells expressing mGPR17, 10 min pre-incubation, 500 nM UDP, read-out: IC50, inhibition of GTPγS binding stimulated by UDP): 1.2 ± 0.3 nM
ischemic infarct volume at 2 h after MCAo (GPR17; i.c.v. treatment 20 min after MCAo, 6 animals/group, no significant differences between groups): 16.4±4.23 mm^3
SMILES: CSCCNc1nc(SCCC(F)(F)F)nc2c1ncn2[C@@H]1O[C@H](COP(=O)(O)OP(=O)(O)C(Cl)(Cl)P(=O)(O)O)[C@@H](O)[C@H]1O [Cangrelor]
effect on UDP-glucose-induced increase of GPR17+ and MBP+ cells ([1]; 10 µM antagonist with 100 µM UDP-glucose): partially counteracted
progression of ischemic damage (brain infarct volume) at 24 and 48 h vs 2 h (GPR17; cangrelor 1.125 µg/animal i.c.v. 20 min after MCAo, oligonucleotides 10 µg/animal i.c.v. 20 min and 24 h after MCAo): totally abolished

EC50 (mGPR17): 55 ± 6.2 nM
SMILES: O=c1ccn([C@@H]2O[C@H](COP(=O)(O)OP(=O)(O)O)[C@@H](O)[C@H]2O)c(=O)[nH]1 [UDP]

EC50 (mGPR17): 0.74 ± 0.2 nM
SMILES: CCCCC/C=C\C\C=C/C=C/C=C/[C@@H](SC[C@H](NC(=O)CC[C@H](N)C(=O)O)C(=O)NCC(=O)O)[C@@H](O)CCCC(=O)O [LTC4]
